Data as given in PubChem BioAssay (NCI).
Several values for one entry are separate records, joined by “and”; a condition that tells them apart may be missing. Equal entries are not always repeated.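 Method: 48-hour compound exposure of cells in 96-well plates, five concentrations, linear interpolation of endpoints. GI50 is the concentration that inhibits growth by half. TGI: total growth inhibition.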

Legend:
Test in all cases: DTP human tumour cell line panel, 48 h
T-47D breast = tested on: T-47D breast
NCI/ADR-RES ovarian = tested on: NCI/ADR-RES ovarian
MDA-MB-231 breast = tested on: MDA-MB-231 breast
MCF7 breast = tested on: MCF7 breast
PC-3 prostate = tested on: PC-3 prostate
SNB-78 CNS = tested on: SNB-78 CNS
KM20L2 colon = tested on: KM20L2 colon
M19-MEL melanoma = tested on: M19-MEL melanoma
DMS 114 small cell lung = tested on: DMS 114 small cell lung
DLD-1 colon = tested on: DLD-1 colon
LXFL 529 NSCLC = tested on: LXFL 529 NSCLC

SMILES	GI50 (T-47D breast)	TGI (T-47D breast)	GI50 (NCI/ADR-RES ovarian)	TGI (NCI/ADR-RES ovarian)	GI50 (MDA-MB-231 breast)	TGI (MDA-MB-231 breast)	GI50 (MCF7 breast)	TGI (MCF7 breast)	GI50 (PC-3 prostate)	TGI (PC-3 prostate)	TGI (SNB-78 CNS) [µM]	TGI (KM20L2 colon) [µM]	TGI (M19-MEL melanoma) [µM]	TGI (DMS 114 small cell lung) [µM]	TGI (DLD-1 colon) [µM]	TGI (LXFL 529 NSCLC) [µM]
Oc1cn(-c2ccc(Cl)cc2)nc1-c1n[nH]c(=S)n1-c1ccc(F)cc1	> 100 µM	> 100 µM	15.4 µM	54.9 µM	10.2 µM	60.1 µM	24.8 µM	> 100 µM	14.8 µM	> 100 µM	–	–	–	–	–	–
CN(C)C1C(=O)C(C(N)=O)=C(O)C2(O)C(=O)C3=C(O)c4c(O)cccc4C(C)(O)C3CC12.[Cl][Sb]([Cl])[Cl] (stereo not given)	3.81 µM	13.2 µM	3.19 µM	16.6 µM	4.3 µM	15.3 µM	3.55 µM	13 µM	3.05 µM	9.92 µM	–	–	–	–	–	–
O=C(CCCCN1CCN(CCCCC(=O)Nc2ccccc2C#C/C=C\C#Cc2ccccc2C(F)(F)F)CC1)Nc1ccccc1C#C/C=C\C#Cc1ccccc1C(F)(F)F	13.2 µM	29.2 µM	9.64 µM	20 µM	6.23 µM	16 µM	9.97 µM	23 µM	13.9 µM	> 50 µM	–	–	–	–	–	–
Cc1ccc2ccc3c4ccccc4ccc3c2c1	23 µM	74.6 µM	30.7 µM	> 100 µM	17.4 µM	47.9 µM	15.5 µM	39.3 µM	30.4 µM	> 100 µM	–	–	–	–	–	–
N=C(N)n1cc(/C=N/N=C(N)N)cn1	–	> 100 µM	–	> 100 µM	–	> 100 µM	–	> 100 µM	–	> 100 µM	–	–	–	–	–	–
CCOC(=O)c1cn(C)c2c(OC)c3ccccc3c(OC)c2c1=O	12.4 µM	42.9 µM	20.4 µM	56.5 µM	32.6 µM	> 100 µM	22.9 µM	47.8 µM	29 µM	> 100 µM	–	–	–	–	–	–
Cn1cc(-c2ccc3ncc(-c4ccc(CC(=O)Nc5cc(C(C)(C)C)nn5C)cc4)cc3c2)cn1	0.617 µM	5.91 µM	0.749 µM	6.77 µM	2.37 µM	> 20 µM	1.47 µM	> 20 µM	0.961 µM	> 20 µM	–	–	–	–	–	–
C#COc1cccc(Nc2ncnc3cc(NC(=O)[C@@H](C)Cl)ccc23)c1	22.5 µM	> 62.5 µM	5.21 µM	34.6 µM	17.2 µM	> 62.5 µM	18.8 µM	> 62.5 µM	11.7 µM	> 62.5 µM	–	–	–	–	–	–
COC(=O)c1ccc(NC(N)=NCCC(C)(C)c2ccc(C(F)(F)F)cc2)nc1	1.62 µM	4.71 µM	2.35 µM	6.03 µM	1.76 µM	3.34 µM	1.7 µM	3.87 µM	3.91 µM	15.5 µM	–	–	–	–	–	–
S=C(Sc1ccc(Cl)cc1)Sc1ccc(Cl)cc1	1.94 µM	5.72 µM	2.67 µM	6.58 µM	2.19 µM	4.36 µM	2.38 µM	7.59 µM	1.58 µM	3.34 µM	–	–	–	–	–	–
CC(=O)C1(C(=O)C(=[N+]=[N-])S(=O)(=O)c2ccccc2)CC1	–	–	–	> 100 µM	–	> 100 µM	–	> 100 µM	–	> 100 µM	–	–	–	–	–	–
O=C(O)c1ccccc1NCn1nc(-c2ccccc2O)oc1=S	68.7 µM	> 100 µM	54 µM	> 100 µM	16.8 µM	47.8 µM	46.7 µM	> 100 µM	43.6 µM	> 100 µM	–	–	–	–	–	–
O=C(Nc1ccc(-n2cc(-c3ccncc3)c(-c3ccc(Cl)c(O)c3)n2)cc1)c1cc(C(F)(F)F)cc(C(F)(F)F)c1	2.16 µM	9.35 µM	6.91 µM	> 100 µM	3.29 µM	21.6 µM	3.53 µM	13.8 µM	3.29 µM	28.5 µM	–	–	–	–	–	–
O=C1c2cccc3c(N4CCOCC4)ccc(c23)C(=O)N1CCN1CCN(CCCCCN2CCN(CCN3C(=O)c4cccc5c(N6CCOCC6)ccc(c45)C3=O)CC2)CC1	> 100 µM	> 100 µM	> 100 µM	> 100 µM	> 100 µM	> 100 µM	77.6 µM	> 100 µM	> 100 µM	> 100 µM	–	–	–	–	–	–
CC(C)c1ccc(Cc2ccc(C(C)C)c(NC(=O)C(=O)Cc3cnc4ccccc4n3)c2C(C)C)c(C(C)C)c1NC(=O)C(=O)Cc1cnc2ccccc2n1	–	–	–	–	–	–	–	–	–	–	> 100	> 100	> 100	> 100	> 100	> 100
COc1ccc(-c2cnc(-c3ccncc3-c3cccc(OC)c3)o2)cc1	2.58 µM	35.1 µM	0.0265 µM	30.1 µM	0.0591 µM	19.3 µM	0.113 µM	12.2 µM	0.0379 µM	16.9 µM	–	–	–	–	–	–
CCN1C(=O)N(CC)C2C1NC(=S)N2/N=C/C=C/c1ccccc1 (stereo not given)	21.5 µM	> 100 µM	0.0935 µM	> 100 µM	0.376 µM	> 28.1 µM	0.0418 µM	> 100 µM	0.0734 µM	> 100 µM	–	–	–	–	–	–
CC(C)(C)O/N=C/c1cc(NC(=S)c2ccccc2)ccc1Cl	–	62.5 µM	–	33.5 µM	–	40.3 µM	–	> 100 µM	–	46 µM	–	–	–	–	–	–
Cc1ccc(C(=O)Nc2ccc(Oc3cc4cnn(C)c4cc3-c3cn[nH]c3)c(F)c2)c(=O)n1-c1ccc(F)cc1	7.28 µM	> 78.8 µM	> 94.1 µM	> 100 µM	10.2 µM	> 78.1 µM	3.2 µM	> 100 µM	16.3 µM	> 100 µM	–	–	–	–	–	–
CCN(CC)CCNc1n[n+]([O-])c2cc([N+](=O)[O-])ccc2[n+]1[O-]	1.34 µM and 0.381 µM and 0.779 µM	3.22 µM	–	4.74 µM and 5.68 µM and 5.6 µM	1.76 µM and 0.425 µM and 0.975 µM	6.33 µM and 3.15 µM and 4.26 µM	0.274 µM and 0.11 µM and 0.136 µM	1.91 µM and 2.17 µM and 1.99 µM	1.09 µM and 0.351 µM and 0.36 µM	9.4 µM and 4.92 µM and 4.59 µM	–	–	–	–	–	–
Nc1nc(-c2ccccc2)c(CC(=O)O)s1	–	> 100 µM	–	> 100 µM	–	> 100 µM	–	> 100 µM	–	> 100 µM	–	–	–	–	–	–
COc1ccc([C@@]23Oc4cc(OC)cc(OC)c4[C@]2(O)[C@H](O)[C@H](C(=O)N(C)C)[C@H]3c2ccccc2)cc1	–	0.044 µM and 0.0052 µM	0.0077 µM and 0.0566 µM	0.442 µM and 0.329 µM and 1.55 µM	0.0231 µM	0.049 µM and 0.00949 µM and 0.0756 µM	–	–	0.0173 µM	–	–	–	–	–	–	–
